Data taken from patent US7015329B2 (Janssen Pharmaceutica N. V., priority 2003, dated 2006).

Experiments:
[1] = target: T1, PPAR delta (Homo sapiens, UniProt Q03181); experiment: Transfection assay for PPAR receptors (GAL4-LBD luciferase reporter), PPAR delta; format: cell-based; details: 18–24 hrs
T1 construct: expressed in transfected cells; host or cells: HEK293
T1 sequence (Q03181 211-439 limits assumed): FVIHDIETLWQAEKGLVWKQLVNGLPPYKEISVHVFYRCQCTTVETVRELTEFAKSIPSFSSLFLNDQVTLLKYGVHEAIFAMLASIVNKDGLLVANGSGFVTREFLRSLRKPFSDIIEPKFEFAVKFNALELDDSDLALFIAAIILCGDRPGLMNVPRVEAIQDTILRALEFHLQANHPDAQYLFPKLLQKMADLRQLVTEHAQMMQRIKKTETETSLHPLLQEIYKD
Experimental: (§1) Transfection Assay Method for PPAR Receptors
(§2) HEK293 cells were grown in DMEM/F12 medium supplemented with 10% FBS and glutamine (Invitrogen) and incubated in a 5% CO2 incubator at 37° C. The cells were co-transfected using DMRIE-C reagent (Invitrogen) in serum free medium (Opti-MEM, Invitrogen) with two mammalian expression plasmids, one containing the DNA sequence coding for the ligand binding domains of either PPARαg or d fused to the yeast GAL4 DNA binding domain and the other containing the promoter sequence of the yeast GAL4 (UAS) fused to the firefly luciferase cDNA reporter. The next day, the medium was changed to DMEM/F12 medium supplemented with 5% charcoal treated serum (Hyclone) and glutamine. After 6 hrs the cells were trypsinized and seeded at a density of 50,000 cells/well into 96 well plates and incubated overnight as above. The cells were then treated with -test compounds or vehicle and incubated for 18–24 hrs as above. Luciferase reporter activity was measured using the Steady-Glo Luciferase Assay Kit from Promega. DMRIE-C Reagent was purchased from GIBCO Cat. No.10459-014. […] Steady-Glo Luciferase Assay Kit was purchased from Promega (Part#E254B).

[2] = target: T2, PPAR alpha (Homo sapiens, UniProt Q07869); experiment: Transfection assay for PPAR receptors (GAL4-LBD luciferase reporter), PPAR alpha; format: cell-based; details: 18–24 hrs
T2 construct: expressed in transfected cells; host or cells: HEK293
T2 sequence (Q07869 239-466 limits assumed): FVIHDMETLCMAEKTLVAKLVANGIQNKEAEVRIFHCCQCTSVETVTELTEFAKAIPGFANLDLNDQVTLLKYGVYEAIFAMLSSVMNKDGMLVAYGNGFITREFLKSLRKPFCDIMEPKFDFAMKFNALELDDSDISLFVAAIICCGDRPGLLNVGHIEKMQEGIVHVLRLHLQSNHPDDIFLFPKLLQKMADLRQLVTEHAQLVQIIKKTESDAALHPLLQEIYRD
Experimental: as §1
HEK293 cells were grown in DMEM/F12 medium supplemented with 10% FBS and glutamine (Invitrogen) and incubated in a 5% CO2 incubator at 37° C. The cells were co-transfected using DMRIE-C reagent (Invitrogen) in serum free medium (Opti-MEM, Invitrogen) with two mammalian expression plasmids, one containing the DNA sequence coding for the ligand binding domains of either PPARαg or d fused to the yeast GAL4 DNA binding domain and the other containing the promoter sequence of the yeast GAL4 (UAS) fused to the firefly luciferase cDNA reporter. The next day, the medium was changed to DMEM/F12 medium supplemented with 5% charcoal treated serum (Hyclone) and glutamine. After 6 hrs the cells were trypsinized and seeded at a density of 50,000 cells/well into 96 well plates and incubated overnight as above. The cells were then treated with -test compounds or vehicle and incubated for 18–24 hrs as above. Luciferase reporter activity was measured using the Steady-Glo Luciferase Assay Kit from Promega. DMRIE-C Reagent was purchased from GIBCO Cat. No.10459-014. OPTI-MEM I Reduced Serum Medium was purchased from GIBCO (Cat. No. 31985). Steady-Glo Luciferase Assay Kit was purchased from Promega (Part#E254B).
A variety of example compounds have been made and tested, with a range of in vitro results. Below are representative compounds and data; in some cases, where multiple EC50's are shown, multiple measurements were taken. Naturally, different compounds in Formula (I) may have not have activities identical to any one compound below.

[3] = target: T3, PPAR gamma (Homo sapiens, UniProt P37231); experiment: Transfection assay for PPAR receptors (GAL4-LBD luciferase reporter), PPAR gamma; format: cell-based; details: 18–24 hrs
T3 construct: expressed in transfected cells; host or cells: HEK293
T3 sequence (P37231 238-503 limits assumed): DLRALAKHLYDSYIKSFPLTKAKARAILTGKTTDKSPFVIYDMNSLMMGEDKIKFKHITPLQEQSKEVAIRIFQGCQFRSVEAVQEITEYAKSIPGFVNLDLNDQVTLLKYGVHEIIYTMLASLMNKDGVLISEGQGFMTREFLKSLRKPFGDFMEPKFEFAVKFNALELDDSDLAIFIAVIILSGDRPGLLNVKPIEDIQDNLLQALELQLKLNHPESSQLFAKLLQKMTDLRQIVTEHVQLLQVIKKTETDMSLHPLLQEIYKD
Experimental: as §1, §2

[4] = test system: differentiated THP-1 monocytes; details: cited from earlier work
[5] = Table 2, compounds of interest, HEK293 cells, PPAR LBD-GAL4 luciferase reporter
[6] = Table 1, HEK293 cells co-transfected with PPAR LBD-GAL4 and GAL4 (UAS) luciferase reporter

SMILES	EC50 [1, 5]	EC50 [2, 5]	EC50 [3, 5]	EC50 [1, 6]	EC50 [2, 6]	EC50 [3, 6]	ABCA1 mRNA expression [4]	cholesterol efflux [4]
Cc1cc(SCc2nc(-c3ccc(OC(F)(F)F)c(Cl)c3)ns2)ccc1OC(C)(C)C(=O)O [Compound 8, 2-{4-[3-(3-Chloro-4-trifluoromethoxy-phenyl)-[1,2,4]thiadiazol-5-ylmethylsulfanyl]-2-methyl-phenoxy}-2-methyl-propionic acid]				2.8 nM	28 nM	> 3000 nM		
Cc1cc(SCc2nc(-c3ccc(Cl)c(Cl)c3)ns2)ccc1OC(C)(C)C(=O)O [Compound 9, 2-{4-[3-(3,4-Dichloro-phenyl)-[1,2,4]thiadiazol-5-ylmethylsulfanyl]-2-methyl-phenoxy}-2-methyl-propionic acid]				13 nM	104 nM	> 3000 nM		
Cc1cc(SCc2nc(-c3ccc(Cl)cc3)ns2)ccc1OC(C)(C)C(=O)O [Compound 7, 2-{4-[3-(4-Chloro-phenyl)-[1,2,4]thiadiazol-5-ylmethylsulfanyl]-2-methyl-phenoxy}-2-methyl-propionic acid]				18 nM	186 nM	> 3000 nM		
Cc1ccc(-c2nsc(CSc3ccc(OC(C)(C)C(=O)O)c(C)c3)n2)cc1Cl [Compound 12, 2-{4-[3-(3-Chloro-4-methyl-phenyl)-[1,2,4]thiadiazol-5-ylmethylsulfanyl]-2-methyl-phenoxy}-2-methyl-propionic acid]				27 nM	68 nM	669 nM		
Cc1cc(SCc2sc(-c3ccc(C(F)(F)F)cc3)nc2C)ccc1OCC(=O)O [GW501516]							induced	enhanced
Cc1cc(SCc2nc(-c3ccc(C(C)(C)C)cc3)ns2)ccc1OC(C)(C)C(=O)O [Compound 6, 2-{4-[3-(4-tert-Butyl-phenyl)-[1,2,4]thiadiazol-5-ylmethylsulfanyl]-2-methyl-phenoxy}-2-methyl-propionic acid]				93 nM	64 nM	> 3000 nM		
Cc1cc(SCc2nsc(-c3ccc(C(F)(F)F)cc3)n2)ccc1OC(C)(C)C(=O)O [Compound 16, 2-Methyl-2-{2-methyl-4-[5-(4-trifluoromethyl-phenyl)-[1,2,4]thiadiazol-3-ylmethylsulfanyl]-phenoxy}-propionic acid]				26 nM	425 nM	> 3000 nM		

Further lines, with some results ahead:

EC50 [1, 5]	EC50 [2, 5]	EC50 [3, 5]	EC50 [1, 6]	EC50 [2, 6]	EC50 [3, 6]	SMILES	ABCA1 mRNA expression [4]	cholesterol efflux [4]
150 nM	> 3000 nM	> 3000 nM				Cc1cc(SCc2csnc2-c2ccc(C(F)(F)F)cc2)ccc1OCC(=O)O [Compound d, {2-Methyl-4-[3-(4-trifluoromethyl-phenyl)-isothiazol-4-ylmethylsulfanyl]-phenoxy}-acetic acid]		
			12.3 nM	93.5 nM	> 3000 nM	Cc1cc(OCc2nc(-c3ccc(OC(F)(F)F)cc3)ns2)ccc1OC(C)(C)C(=O)O [Compound 24, 2-Methyl-2-{2-methyl-4-[3-(4-trifluoromethoxy-phenyl)-[1,2,4]thiadiazol-5-ylmethoxy]-phenoxy}-propionic acid]		
			13 nM	96.8 nM	> 3000 nM	Cc1cc(OCc2nc(-c3ccc(OC(F)(F)F)c(Cl)c3)ns2)ccc1OC(C)(C)C(=O)O [Compound 25]		
			9.3 nM	123 nM	> 1000 nM	Cc1cc(SCCc2nc(-c3ccc(Cl)c(Cl)c3)ns2)ccc1OC(C)(C)C(=O)O [Compound 27, 2-(4-{2-[3-(3,4-Dichloro-phenyl)-[1,2,4]thiadiazol-5-yl]-ethylsulfanyl}-2-methyl-phenoxy)-2-methyl-propionic acid]		
			3 nM	85 nM	> 3000 nM	Cc1cc(OCc2nc(-c3ccc(C(F)(F)F)c(F)c3)ns2)ccc1OC(C)(C)C(=O)O [Compound 21, 2-{4-[3-(3-Fluoro-4-trifluoromethyl-phenyl)-[1,2,4]thiadiazol-5-ylmethoxy]-2-methyl-phenoxy}-2-methyl-propionic acid]		
			229 nM	> 3000 nM	> 3000 nM	Cc1cc(SCc2nsc(-c3ccc(Cl)c(Cl)c3)n2)ccc1OC(C)(C)C(=O)O [Compound 19, 2-{4-[5-(3,4-Dichloro-phenyl)-[1,2,4]thiadiazol-3-ylmethylsulfanyl]-2-methyl-phenoxy}-2-methyl-propionic acid]		
			534 nM	643 nM	> 3000 nM	Cc1ccc(-c2nsc(COc3ccc(OC(C)(C)C(=O)O)c(C)c3)n2)cc1C [Compound 22, 2-{4-[3-(3,4-Dimethyl-phenyl)-[1,2,4]thiadiazol-5-ylmethoxy]-2-methyl-phenoxy}-2-methyl-propionic acid]		
